Measurements from US9617264B2, “2,7-diazaspiro[3.5]nonane compounds” (REMYND NV, priority 2014, dated 2017).

How the values were obtained:
INS-1E cells = assay: Cytokine-induced apoptosis (caspase-3/7 activation, Caspase-Glo 3/7) in INS-1E rat insulinoma cells; format: cell-based; conditions: cytokine mix (IFN-γ, IL-1, TNF-α), 24 hours, caspase 3/7 activity, read-out: CYT EC50
Excerpt: The INS-1E cell line, a rat insulinoma cell line, has been characterized extensively. INS-1E cells respond to glucose by secreting insulin and, unlike most other immortalized n-cell lines, they do this in a consistent manner over time. The cells are sensitive to hyperglycemia-, free fatty acid (FFA)-, and cytokine-induced stress. Prolonged stress ultimately leads to induction of apoptotic pathways and, if stress is not counter-acted, to apoptosis. Caspase-3 and -7 play a central role downstream where various apoptotic pathways merge. As such, activation (i.e. cleavage) of these caspases forms a relevant primary read-out to evaluate protective activity of compounds against stress-induced apoptosis.
To evaluate the efficacy of different compounds to prevent induction of apoptosis, an in vitro screen was developed in which INS-1E cells were exposed to a cytokine mix (IFN-γ, 5 ng/ml; IL-1, 20 pg/ml; TNF-α, 0.25 ng/ml). The degree of induction of apoptosis was evaluated using a substrate for cleaved caspase-3 and -7, i.e. a proluminescent caspase-3/7 DEVD aminoluciferin substrate with a thermostable luciferase (Caspase-Glo® 3/7 assay; Promega, cat. G8092).
On day 0, INS-1E cells were plated in a white-walled 96-well microplate (Greiner, cat. 655098) at 20,000 cells per well in 100 μl complete medium (RPMI containing 11 mM glucose supplemented with 5% FCS, 100 IU/ml penicillin, 100 μg/ml streptomycin, 10 mM HEPES, 1 mM Sodium Pyruvate and 50 μM 2-Mercapto-ethanol). On day 2, 100 μl medium containing cytokines and compound dissolved in DMSO was added to the cells. Wells without cytokines containing DMSO and wells with cytokines and DMSO were included to evaluate the degree of caspase 3/7 activation by the cytokine mix. After 24 hours exposure to cytokines and/or compound, Caspase-Glo® 3/7 reagent was added to the cells and caspase activity was determined by measuring luminescence.
To evaluate compound efficacy, the “toxicity window” was calculated by subtracting caspase activity of wells without stressor from activity of wells with stressor but without compound. The amount of caspase activity in the latter wells was normalized to 1 and used as reference. Subsequently, caspase activity in the wells with stressor and varying concentrations of compound was calculated relative to the wells without compound. Plotting caspase activity vs the log 10 of the concentration of compound permitted calculation of the EC50 values for the compounds which typically lied between 0.0001 and 10 μM. Compounds with an EC50<10 μM were considered active.

M17_3SYN cells = assay: Paraquat-induced cytotoxicity (LDH) in α-synuclein over-expressing M17_3SYN neuroblastoma cells; format: cell-based; conditions: Homo sapiens, Neuroblastoma cell, 48 h, 6 mM Paraquat, 2 days, LDH toxicity inhibition, read-out: SYN EC50
Excerpt: A α-synuclein expression plasmid was constructed by subcloning the NcoI/XhoI fragment from 212T-SYN(WT) (Griffioen et al., Biochem Biophys Acta (2006) 1762(3):312-318) containing the cDNA of human wild type α-synuclein correspondingly into a standard mammalian expression vector pcDNA3.1 resulting in plasmid pcDNA3.1-SYNwt. Plasmids pcDNA3.1 and pcDNA3.1-SYNwt were transfected into human neuroblastoma cells (BE-M17; ATCC No. CRL-2267™) using lipofectamine reagent and subsequently, independent clonal cell lines with the plasmids stably integrated into the genome were selected by antibiotic resistance selection (Geneticin (G418)), resulting in cell lines M17.pcDNA3 and M17_3SYN. Overexpression of α-synuclein in the M17_3SYN cell line was confirmed by Western blot analysis.
Due to the high levels of α-synuclein, M17_3SYN cells were sensitive to paraquat, a well-known risk factor Parkinson's disease and of synuclein-dependent neuronal degeneration. Cytotoxicity of cells was measured by quantification of lactate dehydrogenase (LDH) levels. In dead cells, LDH leaked out of the cells into the medium due to a loss of plasma-membrane integrity.
Three days preceding the experiment, primary pre-cultures of M17.pcDNA3 (as possible control) and M17_3SYN cells were prepared, starting from a stock culture, at a density of 20.000-40.000 cells/cm2 in culture medium (Opti-MEM® Reduced Serum Medium with Phenol Red (Invitrogen, Cat. 31985-047) supplemented with 10% FCS, 1 mM sodium pyruvate, 1×NEAA, 500 μg/ml G418 and 0.5× antibiotic/antimycotic (ABAM)). 3 days later these primary pre-cultures were used as a starting point to make secondary pre-cultures at a density of 50.000-100.000 cells/cm^2. At the day of the experiment these secondary precultures were diluted to ˜0.5·10^6 cells/ml in detection medium (Opti-MEM® Reduced-Serum Medium without Phenol Red (Invitrogen, Cat. 11085-021) supplemented with 10% FCS, 1 mM sodium pyruvate, 1×NEAA, 500 μg/ml G418 and 0.5×ABAM) and 60 μL of this suspension was dispensed per well into a 96-well microtiter plate. After 3 hours of incubation at 37° C./5% CO2 an equal volume of detection medium containing a final concentration of 6 mM Paraquat was added and subsequently incubated for 2 days at 37° C./5% CO2. Then LDH activity was determined using the Promega Cytotox 96 Non-Radioactive cytotoxicity assay (Promega, Cat. G1780), according to the manufacturer's instructions. Cytotoxicity was defined as the ratio of LDH relative to the total LDH in the cells and supernatant.
The assay described above using the M17_3SYN cell line allowed screening compounds for their ability to decrease cytotoxicity in PQ-challenged cells. Compounds of the invention were tested for their ability to decrease toxicity at different concentrations, ranging from low non-effective concentrations to high effective concentrations. Afterwards, a dose-dependent inhibition curve was used to calculate the EC50. A compound was considered to be active in this test when it inhibited toxicity by more than 20% relative to untreated M17_3SYN cells at a concentration of […] or lower.

SMILES	EC50 (INS-1E cells) [nM]	EC50 (M17_3SYN cells) [nM]
COc1ccc(S(=O)(=O)N2CCC3(CC2)CN(S(=O)(=O)c2ccc(OC)cc2)C3)cc1 [Cmpd001, 2,7-Bis((4-methoxyphenyl)sulfonyl)-2,7-diazaspiro[3.5]nonane]	201	1.1
COc1ccc(S(=O)(=O)N2CCC3(CC2)CN(S(=O)(=O)c2ccc(Cl)cc2)C3)cc1 [Cmpd005, 2-((4-Chlorophenyl)sulfonyl)-7-((4-methoxyphenyl)sulfonyl)-2,7-diazaspiro[3.5]nonane]	20	6.4
CCC(C(=O)N1CC2(CCN(S(=O)(=O)c3ccc(OC)cc3)CC2)C1)c1ccccc1 (centres unmarked) [Cmpd011, 1-(7-((4-Methoxyphenyl)sulfonyl)-2,7-diazaspiro[3.5]nonan-2-yl)-2-phenylbutan-1-one]	248	66.4
COc1ccc(S(=O)(=O)N2CCC3(CC2)CN(C(=O)C2(c4ccccc4)CC2)C3)cc1 [Cmpd014, (7-((4-Methoxyphenyl)sulfonyl)-2,7-diazaspiro[3.5]nonan-2-yl)(1-phenylcyclopropyl)methanone]	34	56.8
COc1ccc(S(=O)(=O)N2CCC3(CC2)CN(C(=O)CCc2ccc(F)cc2)C3)cc1 [Cmpd015, 3-(4-Fluorophenyl)-1-(7-((4-methoxyphenyl)sulfonyl)-2,7-diazaspiro[3.5]nonan-2-yl)propan-1-one]	31	535
COc1ccc(S(=O)(=O)N2CCC3(CC2)CN(C(=O)C(C)(O)c2ccccn2)C3)cc1 (centres unmarked) [Cmpd018, 2-Hydroxy-1-(7-((4-methoxyphenyl)sulfonyl)-2,7-diazaspiro[3.5]nonan-2-yl)-2-(pyridin-2-yl)propan-1-one]	58	241
COc1ccc(C(C)C(=O)N2CC3(CCN(S(=O)(=O)c4ccc(OC)cc4)CC3)C2)cc1 (centres unmarked) [Cmpd019, 2-(4-Methoxyphenyl)-1-(7-((4-methoxyphenyl)sulfonyl)-2,7-diazaspiro[3.5]nonan-2-yl)propan-1-one]	54	95.3
COc1ccc(S(=O)(=O)N2CCC3(CC2)CN(C(=O)C(C)(C)c2ccccc2C)C3)cc1 [Cmpd020, 1-(7-((4-Methoxyphenyl)sulfonyl)-2,7-diazaspiro[3.5]nonan-2-yl)-2-methyl-2-(o-tolyl)propan-1-one]	43	14.3
COc1ccc(S(=O)(=O)N2CCC3(CC2)CN(C(=O)[C@H](c2ccc(F)cc2)C(C)C)C3)cc1 [Cmpd022, (S)-2-(4-fluorophenyl)-1-(7-((4-methoxyphenyl)sulfonyl)-2,7-diazaspiro[3.5]nonan-2-yl)-3-methylbutan-1-one]	108	28.7
COc1ccc(S(=O)(=O)N2CCC3(CC2)CN(C(=O)C(C)c2ccccc2OC)C3)cc1 (centres unmarked) [Cmpd023, 2-(2-Methoxyphenyl)-1-(7-((4-methoxyphenyl)sulfonyl)-2,7-diazaspiro[3.5]nonan-2-yl)propan-1-one]	19	39
COc1ccc(S(=O)(=O)N2CCC3(CC2)CN(C(=O)C(C)(C)c2ccccc2OC)C3)cc1 [Cmpd024, 2-(2-Methoxyphenyl)-1-(7-((4-methoxyphenyl)sulfonyl)-2,7-diazaspiro[3.5]nonan-2-yl)-2-methylpropan-1-one]	63	81.5
COc1ccc(S(=O)(=O)N2CCC3(CC2)CN(C(=O)C2CCCc4ccccc42)C3)cc1 (centres unmarked) [Cmpd025, (7-((4-Methoxyphenyl)sulfonyl)-2,7-diazaspiro[3.5]nonan-2-yl)(1,2,3,4-tetrahydronaphthalen-1-yl)methanone]	616	65.3
COc1ccc(S(=O)(=O)N2CCC3(CC2)CN(C(=O)C(C)c2ccc(Cl)cc2)C3)cc1 (centres unmarked) [Cmpd026, 2-(4-Chlorophenyl)-1-(7-((4-methoxyphenyl)sulfonyl)-2,7-diazaspiro[3.5]nonan-2-yl)propan-1-one]	88	131
COc1ccc(S(=O)(=O)N2CCC3(CC2)CN(C(=O)C(C)(C)c2ccc(Cl)cc2)C3)cc1 [Cmpd027, 2-(4-Chlorophenyl)-1-(7-((4-methoxyphenyl)sulfonyl)-2,7-diazaspiro[3.5]nonan-2-yl)-2-methylpropan-1-one]	181	14.8
COc1ccc(S(=O)(=O)N2CCC3(CC2)CN(C(=O)C2(c4ccccc4)CCCC2)C3)cc1 [Cmpd028, (7-((4-Methoxyphenyl)sulfonyl)-2,7-diazaspiro[3.5]nonan-2-yl)(1-phenylcyclopentyl)methanone]	29	22
COc1ccc(S(=O)(=O)N2CCC3(CC2)CN(C(=O)C(C)c2cc(F)cc(F)c2)C3)cc1 (centres unmarked) [Cmpd029, 2-(3,5-Difluorophenyl)-1-(7-((4-methoxyphenyl)sulfonyl)-2,7-diazaspiro[3.5]nonan-2-yl)propan-1-one]	57	189
O=S(=O)(c1ccc(OC(F)F)cc1)N1CCC2(CC1)CN(S(=O)(=O)c1ccc(F)cc1)C2 [Cmpd044, 7-((4-(Difluoromethoxy)phenyl)sulfonyl)-2-((4-fluorophenyl)sulfonyl)-2,7-diazaspiro[3.5]nonane]	188	
COc1ccc(S(=O)(=O)N2CC3(CCN(S(=O)(=O)c4ccc(Cl)cc4)CC3)C2)cc1 [Cmpd047, 7-((4-Chlorophenyl)sulfonyl)-2-((4-methoxyphenyl)sulfonyl)-2,7-diazaspiro[3.5]nonane]	14	
O=S(=O)(c1ccc(OC(F)F)cc1)N1CCC2(CC1)CN(S(=O)(=O)c1ccc(OC(F)F)cc1)C2 [Cmpd048, 2,7-Bis((4-(difluoromethoxy)phenyl)sulfonyl)-2,7-diazaspiro[3.5]nonane]	61	
CCOc1ccc(S(=O)(=O)N2CCC3(CC2)CN(S(=O)(=O)c2ccc(OC(F)F)cc2)C3)cc1 [Cmpd049, 2-((4-(Difluoromethoxy)phenyl)sulfonyl)-7-((4-ethoxyphenyl)sulfonyl)-2,7-diazaspiro[3.5]nonane]	90	
O=S(=O)(c1ccc(Cl)cc1)N1CCC2(CC1)CN(S(=O)(=O)c1ccc(OC(F)F)cc1)C2 [Cmpd050, 7-((4-Chlorophenyl)sulfonyl)-2-((4-(difluoromethoxy)phenyl)sulfonyl)-2,7-diazaspiro[3.5]nonane]	103	
O=S(=O)(c1ccc(F)cc1)N1CCC2(CC1)CN(S(=O)(=O)c1ccc(OC(F)F)cc1)C2 [Cmpd051, 2-((4-(Difluoromethoxy)phenyl)sulfonyl)-7-((4-fluorophenyl)sulfonyl)-2,7-diazaspiro[3.5]nonane]	33	
